Structures are written as SMILES. In brackets after ≈: the same amount, converted by molar mass. Read-outs that look alike come from different tables or passages of the source. Bounds are passed on as bounds.

Data set [1] has as its system Bacillus subtilis No. 10707. Description: Antibacterial activity, MIC by agar dilution method. In kind it is cell-based. Here is the method: (§1) The antibacterial activity was determined by the agar dilution method using a medium (pH 7) which comprises 3 g/l Bacto-tryptone (produced by Difco Laboratories), 3 g/l meat extract, 1 g/l yeast extract, 1 g/l glucose and 16 g/l agar.
For orientation: Agar dilution tests growth on a series of plates holding different concentrations.

For data set [2], the system named is Candida albicans ATCC 10231. Described as above. The data set is classed as cell-based. Here is the method: as §1
For data set [3], the system named is Enterococcus faecium ATCC 10541. Described as above. In kind it is cell-based. On the procedure: as §1
Another data set deals with Escherichia coli ATCC 26. Described as above. In kind it is cell-based. To be noted: ATCC26, pH 7. On the procedure: as §1
The subject of data set [4] is Klebsiella pneumoniae ATCC 10031. The description is as above. In kind it is cell-based. Here is the method: as §1
Data set [5] deals with Proteus vulgaris ATCC 6897. Described as above. The data set is classed as cell-based. Here is the method: as §1
In data set [6] the test system is Pseudomonas aeruginosa Bin H No. 1. The description is as above. The data set is classed as cell-based. As to conditions: pH 7. Here is the method:
as §1

For data set [7], the system named is Salmonella typhi ATCC 9992. Described as above. In kind it is cell-based. As to conditions: Salmonella enterica, pH 7. Here is the method: as §1
The subject of data set [8] is Shigella sonnei ATCC 9290. The description is as above. As to conditions: ATCC9290, pH 7. The data set is classed as cell-based. Here is the method:
as §1

Data set [9] has as its system Staphylococcus aureus ATCC 6538P. The description is as above. The data set is classed as cell-based. To be noted: ATCC6538P, pH 7. Here is the method: as §1
Another data set deals with HeLaS3 cells. The data set is described as follows: Growth inhibition against HeLaS3 cells. In kind it is cell-based. As to conditions: Homo sapiens, HeLa S3, 1 h. Here is the method:
HeLaS3 cells (ATCC HTB22) were suspended in a medium comprising 10% fetal calf serum, 2 mM glutamine and MEM medium (produced by Nissui Pharmaceutical Co., Ltd.) (hereinafter referred to as medium A) to a concentration of 3×10^4 cells/ml. The cell suspension was put into wells of a 96-well microtiter plate in an amount of 0.1 ml per well. The cells in the plate were cultured at 37° C. for 20 hours in a CO2 -incubator. Subsequently, the test compound appropriately diluted with medium A was added to the wells in an amount of 0.1 ml/well. The cells were further cultured at 37° C. for one hour in the CO2 -incubator, and then the culture supernatant was removed. To the residue was added a medium comprising medium A and 0.02% Neutral Red in an amount of 0.1 ml per well, followed by culturing at 37° C. for one hour in the CO2 -incubator, whereby the cells were stained. After removal of the culture supernatant, the residue was washed once with physiological saline. The pigment was extracted with 0.001 N hydrochloric acid/30% ethanol, and the absorbance at 550 nm was measured by using a microplate reader. The concentration of the test compound at which the growth of the cells is inhibited by 50% (IC50) was calculated by comparing the absorbance of untreated cells with those of the cells treated with the test compound at known concentrations.

A further data set can be described thus: Solubility. The data set is classed as physicochemical.

With `Cc1cc2c(O)c3c(cc2c2oc(C4(C)OC4C4CO4)cc(=O)c12)C(=O)C1OC1(C1CC(=O)C(O)C(C)O1)C3O` (centres unmarked) [DC114-C, reference compound], the MIC was 0.33 µg/mL (≈ 0.599 µM) in data set [1] (Bacillus subtilis No. 10707, agar dilution, pH 7, read-out: MIC); > 83.3 µg/mL in data set [2] (ATCC10231, Candida albicans ATCC 10231, agar dilution, pH 7, read-out: MIC); 0.16 µg/mL (≈ 0.291 µM) in [3] (ATCC10541, Enterococcus faecium ATCC 10541, agar dilution, pH 7, read-out: MIC); 20.8 µg/mL (≈ 37.8 µM) against Escherichia coli ATCC 26; 5.21 µg/mL (≈ 9.46 µM) in [4] (ATCC10031, Klebsiella pneumoniae ATCC 10031, agar dilution, pH 7, read-out: MIC); 5.21 µg/mL (≈ 9.46 µM) in [5] (ATCC6897, Proteus vulgaris ATCC 6897, agar dilution, pH 7, read-out: MIC). Moreover, the MIC was determined as 41.7 µg/mL (≈ 75.7 µM) in data set [6] (Pseudomonas aeruginosa Bin H No. 1, agar dilution, read-out: MIC); 20.8 µg/mL (≈ 37.8 µM) in data set [7]; 20.8 µg/mL (≈ 37.8 µM) in [8]; 0.16 µg/mL (≈ 0.291 µM) in data set [9] (Staphylococcus aureus ATCC 6538P, agar dilution, read-out: MIC). Besides, the concentration for half-maximal inhibition (IC50) in the data set on HeLaS3 cells (HeLaS3 cells, one hour with compound, 37° C., Neutral Red, absorbance at 550 nm, read-out: IC50) was determined as 21 nM.

Regarding `Cc1cc2c(O)c3c(cc2c2oc(C4(C)OC4C4CO4)cc(=O)c12)C(=O)C1OC1(C1CC(=O)C(O)C(C)O1)C3=O` (centres unmarked) [DC114-A1], the MIC in [1] (Bacillus subtilis, NO.10707, pH 7) was found to be 0.33 µg/mL (≈ 0.602 µM); in data set [2] (Candida albicans, ATCC10231, pH 7), 5.21 µg/mL (≈ 9.5 µM); in data set [3] (Enterococcus faecium, ATCC10541, pH 7) it was 0.16 µg/mL (≈ 0.292 µM); against Escherichia coli ATCC 26, 5.21 µg/mL (≈ 9.5 µM); in [4] (Klebsiella pneumoniae, ATCC10031, pH 7) it was 5.21 µg/mL (≈ 9.5 µM); in data set [5] (Proteus vulgaris, ATCC6897, pH 7) it was 2.6 µg/mL (≈ 4.74 µM). Besides, the MIC in data set [6] (Pseudomonas aeruginosa) stood at 5.21 µg/mL (≈ 9.5 µM); in [7] it was 5.21 µg/mL (≈ 9.5 µM); in data set [8], 5.21 µg/mL (≈ 9.5 µM); in [9] (Staphylococcus aureus), 0.04 µg/mL (≈ 0.0729 µM). The 50% inhibitory concentration (IC50) in the data set on HeLaS3 cells amounted to 12 nM. The Solubility entry was “Soluble” in the data set “Solubility” (acetone); “sparingly soluble” in “Solubility” (chloroform); “Soluble” in the data set “Solubility” (dimethylsulfoxide (DMSO)); “sparingly soluble” in the data set “Solubility” (ethyl acetate); “Soluble” in “Solubility” (methanol); “sparingly soluble” in “Solubility” (n-hexane). Further, the Solubility result in “Solubility” (water) is “sparingly soluble”.

What is called MIC is the least concentration at which growth counts as inhibited. In general, IC50 refers to the concentration that inhibits the measured activity by half.

The values are drawn from patent US5536850A, “Substance DC114-A1” (Kyowa Hakko Kogyo Co., Ltd., priority 1993, dated 1996).
